≈ marks a conversion by molar mass, not a printed value.
What was measured:
Typhlodromus pyri = assay: LR50; higher = less toxic; conditions: not reported; mortality
Aphidius rhopalosiphi = assay: LR50; higher = less toxic; conditions: not reported; mortality
Oryctolagus sp. = conditions: reproduction developmental; body weight
Bird = conditions: reproductive; mortality
Cyprinus carpio = conditions: chronic/long-term; duration: 28 days
Daphnia magna = conditions: chronic/long-term; duration: 21 days
Tagia sp. = conditions: acute; duration: 14 days; mortality
Oncorhynchus mykiss = conditions: acute; duration: 96 hours; mortality
Coturnix japonica = conditions: acute; oral; mortality

SMILES: O=C(O)COc1ccc2ccccc2c1 [2-Naphthoxyacetic acid]
- LR50 (Typhlodromus pyri): > 80 g/ha
- LR50 (Aphidius rhopalosiphi): > 100 g/ha
- NOAEL (Oryctolagus sp.): 60 mg/kg-day
- NOEC (Bird): 10 mg/kg-day
- NOEC (Cyprinus carpio): 10 mg/L
- NOEC (Daphnia magna): 6.7 mg/L
- LC50 (Tagia sp.): 0.045 g/ha
- LD50 (Rattus norvegicus; acute, oral, F, mortality): 1420 mg/kg-day
- NOAEL (Rattus norvegicus; developmental, development): 60 mg/kg-day
- NOAEL (Rattus norvegicus; reproduction developmental, mortality): 30 mg/kg-day
- NOAEL (Rattus norvegicus; subchronic, duration: 90 days, oral, organ weight): 10 mg/kg-day
- LC50 (Oncorhynchus mykiss): 2.39 µg/mL (≈ 11.8 µM)
- LD50 (Coturnix japonica): > 2000 mg/kg-day

— EPA's ToxValDB 9.5 (doi:10.2903/j.efsa.2011.2152)
